Data on 13 molecules can be found in paper PMC10143232, “Dihydropyrimidone Derivatives as Thymidine Phosphorylase Inhibitors: Inhibition Kinetics, Cytotoxicity, and Molecular Docking” (Molecules, 2023).

The target of data set [1] is T1, Thymidine phosphorylase (TP) (Escherichia coli, UniProt P07650).
T1 construct: purchased Sigma Aldrich, USA
Briefly: Thymidine phosphorylase inhibition assay (spectrophotometric, 290 nm). In kind it is biochemical, E. coli. The conditions noted are these: for inhibition at 500 µM: pH 7, E. coli TP, test compound 10 µL of 0.5 mM in 200 µL, thymidine substrate, 30 °C, pH 7.0, read-out: Thymidine Phosphorylase Inhibitory Activity % Inhibition; for IC50: E. coli TP, n = 3, NA: not active, read-out: Thymidine Phosphorylase Inhibitory Activity IC50 ± SEM. The procedure: Thymidine phosphorylase (source: E. coli, EC Number 2.4.2.4), thymidine (substrate), and potassium phosphate monobasic (as buffer) were acquired from Sigma Aldrich, USA. […] Dimethylsulfoxide (DMSO), used as a solvent, was obtained from Fisher Scientific, Schwerte, Germany.
Reaction was performed in 96-well plates and in triplicates. The 200 µL reaction mixture was comprised of 10 µL of the test compound (0.5 mM; dissolved in DMSO), 150 µL of potassium phosphate buffer (pH 7.0, 50 mM), and 20 µL of TP enzyme (0.058 unit/well). The 96-well plate containing all these reagents was then incubated at 30 °C for 10 min.
SoftMax Pro 4.8 software (Molecular Devices, San Jose, CA, USA) was used to analyse the results.
(§1) EZ-FIT, enzyme kinetics software (Perrella Scientific, Inc., Amherst, GA, USA) was used to calculate the IC50 values. In order to analyse the kinetic parameter, Grafit version 7.0 (Erithacus Software Ltd., Horley, UK) was used.

Data set [2] has as its target T1, Thymidine phosphorylase (TP). Briefly: Mechanistic (kinetic) studies of TP inhibition. Format: biochemical. The conditions noted are these: E. coli TP; for Type of Inhibition: Lineweaver–Burk, Dixon plots; for Ki: inhibitor 200–500 µM, thymidine 0.1875–1.5 mM, read-out: Ki ± SEM.
Description: Kinetic studies are used for the investigation of chemical reactions in terms of their reaction rates, reaction mechanisms, and the factors that affect these parameters. Herein, it is used determine the type/mechanism of inhibition of dihydropyrimidone derivatives.
as §1

Data set [3] is described as follows: MTT cytotoxicity assay. In kind it is cell-based. Particulars: 3T3 mouse fibroblast cells, 48 h, test compounds 1 to 30 µM, NC: non-cytotoxic, read-out: Cytotoxicity Studies Cell Viability (%). On the procedure:
(§2) Cytotoxicity of active compounds were evaluated employing a standard MTT calorimetric assay. Mouse fibroblast (3T3 cell line) acquired from American Type Culture Collection (ATCC), Virginia, USA, was cultured in DMEM (Dulbecco’s modified eagle medium). In total, 5% FBS (fetal bovine serum), penicillin (100 IU/mL), and streptomycin ([…]) were then added to the medium in […] flasks, and kept in a CO2 incubator at 37 °C. The harvested cell was then diluted with a specific medium. Haemocytometer was used for the quantification of cells. After that, the culture of cell having concentration of 5x104 (cells/mL) was prepared, inoculated into 96-well plates (100 µL/well), and then incubated overnight. After incubation, the old medium was removed, and fresh medium (200 µL) was added. Then different concentrations of test compounds (ranging from 1 to 30 µM) were added. After incubation of 48 h, each well received 200 µL of MTT dye (0.5 mg/mL), and further incubated for a duration of 4 h. After 4 h, 100 µL of DMSO was introduced into each well of the 96-well plate. The reduction of MTT to formazan was measured by recording absorbance at 540 nm with the help of a microplate reader (SpectraMax 384, Molecular Devices, San Jose, CA, USA).

Data set [4] relates to 3T3 (mouse fibroblast) cell line. Briefly: MTT cytotoxicity assay. Format: cell-based. On the procedure:
as §2

Data set [5] deals with E. coli TP. Set-up: method as in earlier work. The conditions noted are these: read-out: 50% inhibitory concentration (IC50); purified E. coli TP; conversion of dThd to Thy; ref [5]; cited from earlier work.

SMILES strings stand for the structures. “Also recorded” adds a separate entry of the source.

T1 sequence (P07650 whole entry): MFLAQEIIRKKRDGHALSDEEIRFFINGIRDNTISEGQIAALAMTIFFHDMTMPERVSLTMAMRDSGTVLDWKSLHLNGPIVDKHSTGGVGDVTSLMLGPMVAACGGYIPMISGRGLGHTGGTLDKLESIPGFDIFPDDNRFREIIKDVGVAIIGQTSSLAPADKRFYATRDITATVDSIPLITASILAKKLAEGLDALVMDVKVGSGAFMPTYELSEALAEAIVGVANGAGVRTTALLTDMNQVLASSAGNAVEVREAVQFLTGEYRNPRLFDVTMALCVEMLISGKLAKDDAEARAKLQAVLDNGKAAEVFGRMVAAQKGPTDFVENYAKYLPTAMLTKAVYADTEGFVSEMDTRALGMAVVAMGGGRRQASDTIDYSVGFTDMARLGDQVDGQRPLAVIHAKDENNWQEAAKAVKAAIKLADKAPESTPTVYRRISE

As for `O=c1[nH]c(=O)c2cc[nH]c2[nH]1` [7-Deazaxanthine, reference compound], the inhibition at 500 µM in data set [1] worked out at 82%. In addition, in data set [2], the “Type of Inhibition” value is “Non-Competitive”.

Regarding `COC(=O)C1=C(C)NC(=O)NC1c1ccccc1` (stereo not drawn) [Compound 1, Methyl 6-methyl-2-oxo-4-phenyl-1,2,3,4-tetrahydropyrimidine-5-carboxylate], in data set [1], the IC50 came to 314.3 ± 0.9 µM and the inhibition at 500 µM is 84%. Also, in data set [2], the “Type of Inhibition” value was “Non-Competitive” and the inhibition constant (Ki) was 326.3 ± 0.002 µM. Also, the viability at 48 h in data set [3] came to 57%. Further, the “Cytotoxicity against 3T3 cells (in words)” value (shortened to “Cytotoxicity”) in data set [4] was “non-cytotoxic; also recorded: non-toxic”.

Regarding `COC(=O)C1=C(C)NC(=O)NC1c1ccc([N+](=O)[O-])cc1` (stereo not drawn) [Compound 12, Methyl 6-methyl-4-(4-nitrophenyl)-2-oxo-1,2,3,4-tetrahydropyrimidine-5-carboxylate], in data set [1], the IC50 amounted to 303.5 ± 0.4 µM and the inhibition at 500 µM came out at 91.5%. In addition, in data set [2], the “Type of Inhibition” value is reported as “Non-Competitive” and the inhibition constant (Ki) is 297.6 ± 0.006 µM. Moreover, the viability at 48 h in data set [3] came out at 57%. The “Cytotoxicity” value in data set [4] is on record as “non-cytotoxic; also recorded: non-toxic”.

For `COC(=O)C1=C(C)NC(=O)NC1c1ccsc1` (stereo not drawn) [Compound 24, Methyl 6-methyl-2-oxo-4-(thiophen-3-yl)-1,2,3,4-tetrahydropyrimidine-5-carboxylate], in data set [1], the IC50 was 350.6 ± 0.6 µM and the inhibition at 500 µM came out at 79.6%. Further, the viability at 48 h in data set [3] worked out at 82%.

Take `COC(=O)C1=C(C)NC(=O)NC1c1ccc(OC)c(OC)c1` (stereo not drawn) [Compound 25, Methyl 4-(3,4-dimethoxyphenyl)-6-methyl-2-oxo-1,2,3,4-tetrahydropyrimidine-5-carboxylate]: in data set [1], the IC50 was found to be 424.1 ± 0.9 µM and the inhibition at 500 µM stood at 59%. For the same molecule, in data set [3], the viability at 48 h came to 99%.

Take `COC(=O)C1=C(C)NC(=O)NC1c1ccc(N(C)C)cc1` (stereo not drawn) [Compound 26, Methyl 4-(4-(dimethylamino)phenyl)-6-methyl-2-oxo-1,2,3,4-tetrahydropyrimidine-5-carboxylate]: in data set [1], the IC50 stood at 350 ± 3.7 µM and the inhibition at 500 µM was 92.3%. For the same molecule, in data set [3], the viability at 48 h was found to be 57%.

Consider `COC(=O)C1=C(C)NC(=O)NC1c1ccc(O)c(Cl)c1` (stereo not drawn) [Compound 28, Methyl 4-(3-chloro-4-hydroxyphenyl)-6-methyl-2-oxo-1,2,3,4-tetrahydropyrimidine-5-carboxylate], for which, in data set [1], the IC50 amounted to 404.6 ± 1 µM and the inhibition at 500 µM was 67.5%. The viability at 48 h in data set [3] is 95%.

Take `COC(=O)C1=C(C)NC(=O)NC1c1ccc(OC(C)=O)c(OC)c1` (stereo not drawn) [Compound 29, Methyl 4-(4-acetoxy-3-methoxyphenyl)-6-methyl-2-oxo-1,2,3,4-tetrahydropyrimidine-5-carboxylate]: in data set [1], the IC50 was found to be 400.5 ± 0.6 µM and the inhibition at 500 µM was 76%. Also, the viability at 48 h in data set [3] was determined as 80%.

Turning to `COC(=O)C1=C(C)NC(=O)NC1c1cc(OC)c(O)c(OC)c1` (stereo not drawn) [Compound 30, Methyl 4-(4-hydroxy-3,5-dimethoxyphenyl)-6-methyl-2-oxo-1,2,3,4-tetrahydropyrimidine-5-carboxylate], in data set [1], the IC50 was found to be 396.7 ± 1.5 µM and the inhibition at 500 µM came to 69.6%. Also, in data set [3], the viability at 48 h stood at 75%.

Regarding `COC(=O)C1=C(C)NC(=O)NC1c1ccc(C)s1` (stereo not drawn) [Compound 32, Methyl 6-methyl-4-(5-methylthiophen-2-yl)-2-oxo-1,2,3,4-tetrahydropyrimidine-5-carboxylate], in data set [1], the IC50 worked out at 485.7 ± 1.5 µM and the inhibition at 500 µM is 58.3%. Besides, the viability at 48 h in data set [3] stood at 85%.

For the molecule `COC(=O)C1=C(C)NC(=O)NC1c1ccc(C(F)(F)F)cc1` (stereo not drawn) [Compound 33, Methyl 6-methyl-2-oxo-4-(4-(trifluoromethyl)phenyl)-1,2,3,4-tetrahydropyrimidine-5-carboxylate], in data set [1], the IC50 stood at 322.6 ± 1.6 µM and the inhibition at 500 µM turned out to be 73.6%. In data set [2], the “Type of Inhibition” value is given as “Non-Competitive” and the Ki is 311.4 ± 0.004 µM. Further, the viability at 48 h in data set [3] turned out to be 61%. The “Cytotoxicity” value in data set [4] is “non-cytotoxic; also recorded: non-toxic”.

Take `COC(=O)C1=C(C)NC(=O)NC1c1ccc(Cl)cc1` (stereo not drawn) [Compound 34, Methyl 4-(4-chlorophenyl)-6-methyl-2-oxo-1,2,3,4-tetrahydropyrimidine-5-carboxylate]: in data set [1], the IC50 is 443.9 ± 0.9 µM and the inhibition at 500 µM came out at 66.3%. The viability at 48 h in data set [3] was 72%.

Regarding `Oc1ncnc2c1ncn2[C@@H]1O[C@H](COC(c2ccccc2)(c2ccccc2)c2ccccc2)[C@@H](O)[C@H]1O` [KIN59, 5′-O-tritylinosine], the IC50 in data set [5] was 44 ± 3 µM.
